Legend:
[1] = test system: T1, Immobilized β 2-AR; assay: Specificity and stability of the oriented β 2-AR column (retention of control drugs); assay type: binding, Sus scrofa; settings: 20 mM phosphate buffer (pH 7.4), 0.2 mL/min; for Retention times, Immobilized β 2-AR: 37 °C, void time 1.6 min
T1 construct: made in house; host or cells: E. coli BL21 (DE3)
Description: (§1) The column containing the oriented immobilised β 2-AR was prepared by packing the stationary phase into a stainless steel column (2.1 mm×5.0 cm) using the slurry method at a pressure of 4.0×10^7 Pa. Phosphate buffer (20 mM, pH 7.4) was used as the slurry solution. The control column containing exposed silica gel and attached histidine was prepared using the same synthesis method as that of the β 2-AR column.
(§2) The mobile phases were prepared by adding 0 to 40 µM of ephedrine hydrochloride as the competing agent to 20 mM phosphate buffer (pH 7.4). All of the mobile phases were filtrated with 0.45 µm Millipore HV filters and degassed by ultrasonication before HPAC analysis. Working solutions of ephedrine and pseudoephedrine were prepared by dissolving the drugs in phosphate buffer (20 mM, pH 7.4) to a concentration of 1.0 mM. The detection wavelength was 220 nm with an injection of 5.0 µL for each drug. The flow rate was 0.2 mL/min for all of the analyses. […] The capacity factor (k') was calculated by detecting the retention time in triplicate for each injected sample using the equation k' = (tR−t0)/t0. When the injection solute was pseudoephedrine, Eq. (1) was used to plot the curve of 1/(k'-X) and [A], whereas Eq. (2) was used to achieve the plot between [drawing 5] and [A] when ephedrine was used as the analyte.
The specificity of the oriented β 2-AR column was tested by determining the retention times of specific drugs on the receptor.

[2] = test system: β 2-AR; settings: on β 2-AR; response relative to isoproterenol; cited from earlier work
[3] = biological target: T2, β 2-AR (Sus scrofa, UniProt Q28997); assay: Zonal elution on oriented immobilised β 2-AR column (HPAC); assay type: binding; settings: for concentration of the binding site / capacity factor k′ / association constant / association constant KA: 37 °C; for types of binding site on β 2-AR: linear zonal elution plot
T2 construct: made in house; host or cells: E. coli BL21 (DE3)
Description: The binding of ephedrine and pseudoephedrine to the oriented immobilised β 2-AR was determined by zonal elution. The theory assumes that a known concentration of a competing agent (I) continuously passes through a column containing an immobilised ligand (L) while the injecting volume of an analyte (A) is small enough to be neglected compared with the concentration of I in the mobile phase. Assuming I and A have direct competition at a single binding site on L and the interactions have association/dissociation kinetics, Eq. (1) can be used to calculate the binding of A and I to L [24], [25]. [drawing 1] (1) where X is the capacity factor for A due to the existence of a second type of binding site on the column, and k' is the overall capacity factors of A ascribed to all the types of sites. In this case, the equation assumes the capacity factors of A produced by the individual sites are additive, and an independent estimate of the capacity factors due to the second type of site can be obtained, allowing for the capacity factor attributed to the first type of site 1 (Site 1) to be measured by k 1' = k'-X.
When the column is equilibrated with an eluent at concentration [A] and [I] equal to zero, and the retention of compound A is injected as a perturbation, Eq. (2) is used to determine the binding of A to L: [drawing 2] (2)
Assuming a single type of binding site, a linear expression can be obtained by plotting 1/sqrt (k') as a function of [A] to determine mL and K A. For two types of binding sites, a second term is added to the k' expressions.
as §1, §2

[4] = biological target: T2, β 2-AR; assay: Thermodynamic study (zonal elution at 10-45 °C, van't Hoff equation) on oriented immobilised β 2-AR; assay type: binding; settings: for decrease of association constant / decrease of capacity factor / increase of binding sites: 10 °C to 45 °C; for capacity factor on the β 2-AR column: concentration 4.0 µM; for Kd: Association constant; for main force of the binding: semi-empirical rules of Ross et al.; for ΔS^θ: van't Hoff plot, 10-45 °C
Text: The thermodynamic interaction between β 2-AR and ephedrine plus pseudoephedrine was described by the van't Hoff equation, listed as Eq. (3) and (4). [drawing 3] (3) [drawing 4] (4)
In these equations, R is the ideal gas constant (8.31 J/mol/K), and T is the temperature in Kelvin. According to the semi-empirical rules summarised by Ross et al., when ΔG^θ<0, ΔH^θ>0 and ΔS^θ>0, hydrophobic interaction is the main interaction force during the binding process of a drug to protein. […] If ΔG^θ<0, ΔH^θ<0 and ΔS^θ<0, Van der Waals forces or hydrogen bonds are the major forces of the binding.
The thermodynamic investigation of ephedrine and pseudoephedrine on oriented immobilised β 2-AR was performed at 10, 20, 30, 37 and 45 °C. Eq. (3) and (4) were used to calculate the free energy, enthalpy and entropy during the binding of the two drugs to the receptor. The semi-empirical rules by Ross et al. were utilised to reveal the binding mechanism process of the two drugs to β 2-AR.

[5] = test system: papillary muscle; set-up: method as in PMID 3004791; settings: positive inotropic effect on the papillary muscle; cited from earlier work
[6] = biological target: wild-type β 2-AR; set-up: method as in PMID 8095262; settings: read-out: dissociation constant; cited from earlier work
[7] = biological target: β2-ARGsαS; set-up: method as in PMID 9478963; settings: read-out: dissociation constant; cited from earlier work
[8] = 12 µM ephedrine in mobile phase
[9] = 24 µM ephedrine in mobile phase
[10] = 30 µM ephedrine in mobile phase

T2 sequence (Q28997 whole entry): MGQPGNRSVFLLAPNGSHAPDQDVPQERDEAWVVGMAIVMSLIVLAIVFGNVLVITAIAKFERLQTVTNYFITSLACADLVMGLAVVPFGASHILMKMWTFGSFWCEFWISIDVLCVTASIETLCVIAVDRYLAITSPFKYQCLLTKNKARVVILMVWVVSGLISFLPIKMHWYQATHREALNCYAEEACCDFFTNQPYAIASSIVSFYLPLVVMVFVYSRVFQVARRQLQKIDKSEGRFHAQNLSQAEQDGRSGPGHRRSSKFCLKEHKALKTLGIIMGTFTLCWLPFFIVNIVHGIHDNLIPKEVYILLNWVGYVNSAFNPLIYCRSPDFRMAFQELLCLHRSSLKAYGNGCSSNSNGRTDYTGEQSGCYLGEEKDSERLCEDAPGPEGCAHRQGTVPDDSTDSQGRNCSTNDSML

Structure (SMILES): CN(C)C(=O)Oc1cc(OC(=O)N(C)C)cc(C(O)CNC(C)(C)C)c1 (centres unmarked) [bambuterol]
- peak retained or non-retained on β 2-AR column [1]: Retained
- Retention times, Immobilized β 2-AR [1]: 49.1 min

Structure (SMILES): CN[C@H](C)[C@@H](O)c1ccccc1 [1S,2R-ephedrine]
- EC50 [2]: 72 µM

Structure (SMILES): CN[C@@H](C)[C@@H](O)c1ccccc1 [pseudoephedrine, 1S,2S-pseudoephedrine]
- concentration of the binding site [3]: (8.92±0.06) ×10^−4 M
- capacity factor k′ ([3]; 2 µM ephedrine in mobile phase): 5.87±0.01
- capacity factor k′ ([3]; 4 µM ephedrine in mobile phase): 5.81±0.01
- capacity factor k′ ([3]; 8 µM ephedrine in mobile phase): 5.73±0.01
- capacity factor k′ [3, 8]: 5.66±0.01
- capacity factor k′ ([3]; 16 µM ephedrine in mobile phase): 5.54±0.03
- capacity factor k′ [3, 9]: 5.47±0.03
- capacity factor k′ [3, 10]: 5.38±0.01
- types of binding site on β 2-AR [3]: Only one type of binding site
- binding sites ([4]; 10 °C): 807 µM
- decrease of association constant [4]: 1.5 fold
- decrease of capacity factor [4]: 1.2 fold
- increase of binding sites [4]: 1.2 fold
- capacity factor on the β 2-AR column ([4]; 10 °C): 6.36
- binding sites ([4]; 45 °C): 948 µM
- capacity factor on the β 2-AR column ([4]; 45 °C): 5.60
- Kd ([4]; 283.15 K): 202 µM
- Kd ([4]; 293.15 K): 239 µM
- Kd ([4]; 303.15 K): 249 µM
- Kd ([4]; 310.15 K): 263 µM
- Kd ([4]; 318.15 K): 299 µM
- main force of the binding [4]: electrostatic forces
- ΔS^θ [4]: 44.13±0.01 J/mol·K
- EC50 [2]: 309 µM

Structure (SMILES): COc1cc2nc(N3CCN(C(=O)C4CCCO4)CC3)nc(N)c2cc1OC (centres unmarked) [terazosin]
- peak retained or non-retained on β 2-AR column [1]: Non-retained
- Retention times, Immobilized β 2-AR [1]: 1.6 min

Structure (SMILES): CN[C@@H](C)[C@H](O)c1ccccc1 [ephedrine, 1R,2S-ephedrine]
- Kd [3]: 168 µM
- concentration of the binding site [3]: (8.92±0.06) ×10^−4 M
- capacity factor k′ ([3]; 4 µM ephedrine in mobile phase): 5.01±0.02
- capacity factor k′ ([3]; 8 µM ephedrine in mobile phase): 4.84±0.02
- capacity factor k′ [3, 8]: 4.58±0.03
- capacity factor k′ ([3]; 20 µM ephedrine in mobile phase): 4.31±0.01
- capacity factor k′ [3, 9]: 4.08±0.01
- capacity factor k′ [3, 10]: 3.80±0.01
- capacity factor k′ ([3]; 34 µM ephedrine in mobile phase): 3.64±0.01
- association constant ([3]; direct competitive study, pseudoephedrine injected, ephedrine as mobile phase additive): (5.98±0.24)×10^3 /M
- association constant KA ([3]; injection analyte ephedrine (self-competitive)): KA ephedrine = (5.94±0.05)×10^3 M^−1
- association constant KA ([3]; injection analyte ephedrine (self-competitive), listed as 1R,2S-ephedrine): (5.94±0.05)×10^3 M^−1
- association constant KA ([3]; injection analyte pseudoephedrine (direct competitive, ephedrine in mobile phase)): KA ephedrine = (5.98±0.24)×10^3 M^−1
- association constant ([3]; self-competitive study, ephedrine as analyte and competing agent): (5.94±0.05)×10^3 /M
- types of binding site on β 2-AR [3]: Only one type of binding site
- binding sites ([4]; 10 °C): 807 µM
- decrease of association constant [4]: 1.4 fold
- decrease of capacity factor [4]: 1.2 fold
- increase of binding sites [4]: 1.2 fold
- capacity factor on the β 2-AR column ([4]; 10 °C): 5.40
- contribution of ΔH^θ to ΔG^θ ([4]; 37 °C): 29.15%
- contribution of ΔS^θ to ΔG^θ ([4]; 37 °C): 70.85%
- binding sites ([4]; 45 °C): 948 µM
- capacity factor on the β 2-AR column ([4]; 45 °C): 4.63
- Kd ([4]; 283.15 K): 139 µM
- Kd ([4]; 293.15 K): 149 µM
- Kd ([4]; 303.15 K): 161 µM
- Kd ([4]; 310.15 K): 168 µM
- Kd ([4]; 318.15 K): 193 µM
- main force of the binding [4]: Electrostatic interaction
- ΔS^θ [4]: 50.94±0.31 J/mol·K
- pD2 [5]: about 5.95
- Kd [6]: 8 µM
- Kd [7]: 5.1 ± 1.3 µM

Structure (SMILES): CC(C)(C)NCC(O)c1ccccc1Cl (centres unmarked) [tobuterol]
- peak retained or non-retained on β 2-AR column [1]: Retained
- Retention times, Immobilized β 2-AR [1]: 12.5 min
- Retention times, Immobilized β 2-AR ([1]; listed as Tobuterol): 9.9 min

Structure (SMILES): CC(C)NCC(O)c1ccccc1Cl (centres unmarked) [clorprenaline]
- peak retained or non-retained on β 2-AR column [1]: Retained
- Retention times, Immobilized β 2-AR [1]: 9.9 min
- Retention times, Immobilized β 2-AR ([1]; listed as Clorprenaline): 12.5 min

Structure (SMILES): COC(=O)CCc1ccc(OCC(O)CNC(C)C)cc1 (centres unmarked) [esmolol]
- peak retained or non-retained on β 2-AR column [1]: Non-retained
- Retention times, Immobilized β 2-AR [1]: 1.6 min
